Where a SMILES comes first, the peptide text is derived from it. [ ]: non-standard residue; d: D form. Abu = CC[C@H](N)C(=O)O
Legend:
[1] = biological target: T1, HCV NS3•4A (Hepatitis C virus genotype 1a, UniProt P27958); assay: Determination of Km and Vmax for peptide substrates; format: biochemical, HCV sub-type strain 1a; details: enzyme NS3•4A; peptide substrate varied 3-200 μM; Michaelis-Menten fit
T1 construct: hexa-histidine (N); made in house; host or cells: Sf9 insect cells (baculovirus, pVL1392)
Method: (§1) This assay follows the cleavage of a peptide substrate by full-length hepatitis C viral protein NS3•4A. One of three peptide substrates based on the NS5A/NS5B cleavage site for genotype 1a HCV is used to measure enzyme activity. All substrate stock solutions (25 mM) were prepared in DMSO containing 0.2M DTT and stored at −20° C. A synthetic peptide cofactor (NS4A Peptide) was used to supplement NS4A. Peptide sequences are shown below. The hydrolysis reaction was performed in a 96-well microtiter plate format using 100 ηM to 125 ηM HCV NS3•4A in buffer containing 50 mM HEPES pH 7.8, 100 mM NaCl, 20% glycerol, 5 mM DTT and 25 μM NS4A Peptide. The final DMSO concentration was no greater than 2% v/v. Reactions using NS5AB or NS5AB-EDANS as substrate were quenched by the addition of 10% trifluoroacetic acid (TFA) to yield a final TFA concentration of 2.5%. Reactions using FITC-NS5AB-1 as substrate were quenched by the addition of 0.4M formic acid to yield a final concentration of 0.08M acid.
(§2) Enzymatic activity was assessed by separation of substrate and products by reverse phase HPLC. The instrument used was a Agilent 1100 with a G1322A degasser, either a G1312A binary pump or a G1311A quaternary pump, a G1313A autosampler, a G1316A column thermostated chamber, a G1321A fluorescence detector and a G1315A diode array detector. The column thermostat was at 40° C. […] The C-terminal product peak (NH2-SMSY-COOH) was quantitated using the absorbance data collected at 210 ηm. […] The C-terminal product peak (NH2-SMSYT-Asp(EDANS)-KKK-COOH) was quantitated using the fluorescence data collected at 350 ηm excitation/490 ηm emission. […] The N-terminal product peak (FITC-Ahx-EDVV-(alpha)Abu-C—COOH) was quantitated using the fluorescence data collected at 440 nm excitation/520 nm emission. Alternatively, the ratio of N-terminal product to unreacted FITC-NS5AB-1 substrate was determined using a Caliper LabChip 3000 with detection at 488 nm excitation/530 nm emission, using a chip buffer of 100 mM Tris pH 7.0, 10 mM EDTA, 0.01% (v/v) Brij-35, and 0.1% (v/v) CR-3. […]

[2] = biological target: T2, HCV NS3 protease domain (Hepatitis C virus genotype 1b, UniProt Q9WMX2); assay: as above; format: biochemical; details: enzyme NS3 protease domain; peptide substrate varied 3-200 μM; Michaelis-Menten fit
T2 construct: The first 181 amino acids of NS3 (residues 1027-1207 of the viral polyprotein); hexa-histidine (C); made in house; host or cells: E. coli BL21/DE3 pLysS
Method: This assay is a modification of that described by Landro, et al. (Landro J A, Raybuck S A, Luong Y C, O'Malley E T, Harbeson S L, Morgenstern K A, Rao G and Livingston D L. Biochemistry 1997, 36, 9340-9348), and uses a peptide substrate (NS5AB), based on the NS5A/NS5B cleavage site for genotype 1a HCV. The substrate stock solution (25 mM) was prepared in DMSO containing 0.2 M DTT and stored at −20° C. A synthetic peptide cofactor (KK4A) was used as a substitute for the central core region of NS4A. The reaction was performed in a 96-well microtiter plate format using 25 ηM to 50 ηM HCV NS3 protease domain in buffer containing 50 mM HEPES pH 7.8, 100 mM NaCl, 20% glycerol, 5 mM DTT and 25 μM KK4A. The final DMSO concentration was no greater than 2% v/v. […]
The SMSY product was separated from substrate and KK4A using a microbore separation method. […] The SMSY product peak was quantitated using the data collected at […].
To determine the kinetic parameters Km and Vmax, the HCV NS3 protease domain or HCV NS3•4A was reacted with peptide substrate under the assay conditions described above. […] The ratio of the product peak area (as determined by reverse phase HPLC) to the reaction time yielded a rate of enzyme catalyzed hydrolysis. […] The value of kcat was determined from Vmax using the nominal protease concentration and a fully cleaved substrate peptide as an instrument calibration standard.

[3] = biological target: T3, full-length hepatitis C viral protein NS3•4A (Hepatitis C virus genotype 1a, UniProt P27958); assay: biochemical; set-up: species or system HCV sub-type strain 1a; details: Enzyme Assay 2 (HCV NS3 Peptide Cleavage Assay) activity, apparent Ki class
T3 construct: hexa-histidine (N); made in house; host or cells: Sf9 insect cells (baculovirus, pVL1392)

[4] = biological target: T2, HCV NS3 protease domain; assay: biochemical; details: Enzyme Assay 1 (HCV NS3 Protease Domain Peptide Cleavage Assay) activity, apparent Ki class
[5] = tested on: CC[C@H](NC(=O)[C@@H](NC(=O)[C@@H](NC(=O)[C@H](CC(=O)O)NC(=O)[C@@H](N)CCC(=O)O)C(C)C)C(C)C)C(=O)N[C@@H](CS)C(=O)N[C@@H](CO)C(=O)N[C@@H](CCSC)C(=O)N[C@@H](CO)C(=O)N[C@@H](Cc1ccc(O)cc1)C(=O)N[C@H](C(=O)N[C@@H](CC(=O)NCCNc1cccc2c(S(=O)(=O)O)cccc12)C(=O)N[C@@H](CCCCN)C(=O)N[C@@H](CCCCN)C(=O)N[C@@H](CCCCN)C(=O)O)[C@@H](C)O; assay: Determination of Km and Vmax for peptide substrates; format: biochemical, HCV sub-type strain 1a; details: other: enzyme NS3•4A; peptide substrate varied 3-200 μM; Michaelis-Menten fit; 40.0 °C
Method: as §1, §2

Row | Compound | Ki [3] [nM] | Ki [4] [nM] | further results
1 | CC[C@H](NC(=O)[C@@H](NC(=O)[C@@H](NC(=O)[C@H](CC(=O)O)NC(=O)[C@@H](N)CCC(=O)O)C(C)C)C(C)C)C(=O)N[C@@H](CS)C(=O)N[C@@H](CO)C(=O)N[C@@H](CCSC)C(=O)N[C@@H](CO)C(=O)N[C@@H](Cc1ccc(O)cc1)C(=O)O [NS5AB, NH2-EDVV-(alpha)Abu-CSMSY-COOH] (H-EDVV[Abu]CSMSY-OH) |  |  | Km [1]: 30 µM
2 | CC[C@H](NC(=O)[C@@H](NC(=O)[C@@H](NC(=O)[C@H](CC(=O)O)NC(=O)[C@@H](N)CCC(=O)O)C(C)C)C(C)C)C(=O)N[C@@H](CS)C(=O)N[C@@H](CO)C(=O)N[C@@H](CCSC)C(=O)N[C@@H](CO)C(=O)N[C@@H](Cc1ccc(O)cc1)C(=O)O [DomainNS5AB] (H-EDVV[Abu]CSMSY-OH) |  |  | Km [2]: 25 µM
3 | CCC[C@H](NC(=O)[C@@H]1C[C@]2(CC(c3cccc(Cl)c3)=NO2)CN1C(=O)[C@@H](NC(=O)CC1CCCCC1)C(C)(C)C)C(=O)C(=O)NCC1COc2ccccc2O1 (some centres unmarked) [Compound 141] | 100 to 500 | > 500 | 
4 | HCV NS3•4A (Hepatitis C virus (isolate H77)) |  |  | Km [5]: 56 µM; kcat/Km [5]: 1400 M⁻¹ s⁻¹
5 | CCC[C@H](NC(=O)[C@@H]1C[C@]2(CC(c3cccc(Cl)c3)=NO2)CN1C(=O)[C@@H](NC(=O)CC1CCN(C(C)=O)CC1)C(C)(C)C)C(=O)C(=O)NC1CC1 [Compound 304] | < 100 | 100 to 500 | 

Reference: patent US7964624B1, “Inhibitors of serine proteases” (priority 2005, dated 2011)
